The values below come from patent US5763700A, “Pesticidal fluoroolefins” (British Technology Group Limited, priority 1992, dated 1998).

Each structure is given as a SMILES string.

For this assay, the system named is cornroot worm (Diabrotica balteata). As to the kind of experiment: Residual soil activity against cornroot worm larvae, mortality after 48 hours, LC50 by probit analysis. As to conditions: sandy soil, 10% moisture, 22 g, 20° C., 10 larvae, two replicates, 5 dose levels. It counts as in vivo. The method, then:
Residual soil activity of the compounds of Examples 25 to 40 was assessed against cornroot worm (Diabrotica balteata) using the following technique.
A known quantity of test compound dissolved in 1.0 ml acetone was applied evenly to a standard amount (22 g) of a sandy soil with a 10% moisture content. After 1 hour, 10 larvae were introduced. The temperature was maintained at 20° C. ±1° C. and mortality assessed after 48 hours. Two replicates of 10 larvae were used at each of 5 dose levels per compound. LC50 values were calculated as concentration of insecticide in the standard amount of soil using probit analysis.

`Fc1ccc(C/C=C/C2(c3ccc(Cl)cc3)CC2)cc1Oc1ccccc1` [Comp A, 1-(4-chlorophenyl)-1-(E-3-(4-fluoro-3-phenoxyphenyl)prop-1-enyl)-cyclopropane, reference compound]: the “Residual Soil Activity (LC50)” value came out at 0.68 ppm.

`CCOc1ccc(C2(/C=C/Cc3ccc(F)c(Oc4ccccc4)c3)CC2)cc1` [Comp B, 1-(4-ethoxyphenyl)-1-(E-3-(4-fluoro-3-phenoxyphenyl)prop-1-enyl)-cyclopropane, reference compound]: the “Residual Soil Activity (LC50)” value came to 0.43 ppm.

As to `Fc1ccc(C2(/C=C/Cc3ccc(F)c(Oc4ccccc4)c3)CC2)cc1` [Comp C, 1-(4-fluorophenyl)-1-(E-3-(4-fluoro-3-phenoxyphenyl)prop-1-enyl)-cyclopropane, reference compound], the “Residual Soil Activity (LC50)” value is recorded as 0.059 ppm.

Take `FC(F)(F)Oc1ccc(C2(/C=C/Cc3cccc(Oc4ccccc4)c3)CC2)cc1` [Comp D, 1-(4-trifluoromethoxyphenyl)-1-(E-3-(3-phenoxyphenyl)prop-1-enyl)-cyclopropane, reference compound]: the “Residual Soil Activity (LC50)” value is 0.059 ppm.

Regarding `F/C(=C\C1(c2ccc(Cl)cc2)CC1)Cc1cccc(Oc2ccccc2)c1` [Example 25, 1-(4-Chlorophenyl)-1-(2-fluoro-3-(3-phenoxyphenyl)prop-1-enyl)cyclopropane], the “Residual Soil Activity (LC50)” value was 0.031 ppm.

As to `CCOc1ccc(C2(/C=C(\F)Cc3cccc(Oc4ccccc4)c3)CC2)cc1` [Example 26, 1-(4-Ethoxyphenyl)-1-(2-fluoro-3-(3-phenoxyphenyl)prop-1-enyl)cyclopropane], the “Residual Soil Activity (LC50)” value was 0.029 ppm.

For `F/C(=C\C1(c2ccc(OC(F)(F)F)cc2)CC1)Cc1cccc(Oc2ccccc2)c1` [Example 27, 1-(2-Fluoro-3-(3-phenoxyphenyl)prop-1-enyl)-1-(4-trifluoromethoxy-phenyl)cyclopropane], the “Residual Soil Activity (LC50)” value is given as 0.038 ppm.

On to `F/C(=C\C1(c2ccc(F)cc2)CC1)Cc1cccc(Oc2ccccc2)c1` [Example 28, 1-(2-Fluoro-3-(3-phenoxyphenyl)prop-1-enyl)-1-(4-fluorophenyl)cyclopropane], for which the “Residual Soil Activity (LC50)” value was determined as 0.015 ppm.

For `F/C(=C\C1(c2ccc(C(F)(F)F)cc2F)CC1)Cc1cccc(Oc2ccccc2)c1` [Example 29, 1-(2-Fluoro-3-(3-phenoxyphenyl)prop-1-enyl)-1-(2-fluoro-4-trifluoromethylphenyl) cyclopropane], the “Residual Soil Activity (LC50)” value was determined as 0.030 ppm.

Take `F/C(=C\C1(c2ccc3c(c2)OCO3)CC1)Cc1cccc(Oc2ccccc2)c1` [Example 30, 1-(2-Fluoro-3-(3-phenoxyphenyl)prop-1-enyl)-1-(3,4-methylenedioxyphenyl)cyclopropane]: the “Residual Soil Activity (LC50)” value is on record as 0.021 ppm.

With `F/C(=C\C1(c2ccc(OC(F)F)cc2)CC1)Cc1cccc(Oc2ccccc2)c1` [Example 32, 1-(4-Difluoromethoxyphenyl)-1-(2-fluoro-3-(3-phenoxyphenyl)prop-1-enyl)cyclopropane], the “Residual Soil Activity (LC50)” value came to 0.055 ppm.

For `CCOc1ccc(C2(/C=C(\F)Cc3ccc(F)c(Oc4ccccc4)c3)CC2)cc1` [Example 34, 1-(4-Ethoxyphenyl)-1-(2-fluoro-3-(4-fluoro-3-phenoxyphenyl)prop-1-enyl)cyclopropane], the “Residual Soil Activity (LC50)” value is 0.031 ppm.

As for `F/C(=C\C1(c2ccc(F)cc2)CC1)Cc1ccc(F)c(Oc2ccccc2)c1` [Example 35, 1-(2-Fluoro-3-(4-fluoro-3-phenoxyphenyl)prop-1-enyl)-1-(4-fluorophenyl)cyclopropane], the “Residual Soil Activity (LC50)” value is reported as 0.032 ppm.

As for `F/C(=C\C1(c2ccc(C(F)(F)F)cc2F)CC1)Cc1ccc(F)c(Oc2ccccc2)c1` [Example 36, 1-(2-Fluoro-3-(4-fluoro-3-phenoxyphenyl)prop-1-enyl)-1-(2-fluoro-4-trifluoromethylphenyl)cyclopropane], the “Residual Soil Activity (LC50)” value is 0.021 ppm.

Regarding `F/C(=C\C1(c2ccc3c(c2)OCO3)CC1)Cc1ccc(F)c(Oc2ccccc2)c1` [Example 37, 1-(2-Fluoro-3-(4-fluoro-3-phenoxyphenyl)prop-1-enyl)-1-(3,4-methylenedioxyphenyl)cyclopropane], the “Residual Soil Activity (LC50)” value was determined as 0.055 ppm.

On to `F/C(=C\C1(c2ccc(OC(F)F)cc2)CC1)Cc1ccc(F)c(Oc2ccccc2)c1` [Example 39, 1-(4-Difluoromethoxyphenyl)-1-(2-fluoro-3-(4-fluoro-3-phenoxyphenyl)prop-1-enyl)cyclopropane], for which the “Residual Soil Activity (LC50)” value was determined as 0.033 ppm.
